# Experiments:
# [1] = target: mouse D2R-long form (mD2LR) (Mus musculus, UniProt P61168); experiment: cell-based
# [2] = system: Sprague-Dawley rats, i.c.v. ouabain-induced hyperactivity; experiment: Ouabain-induced hyperactivity; assay type: in vivo, rat; settings: acute; cariprazine 1.0 mg/kg i.p. aCSF vs. saline aCSF (no ouabain); P < 0.05
# [3] = cited from earlier work
# [4] = after an i.p. injection, ref [1976]
# mouse D2R-long form (mD2LR), sequence (P61168 whole entry): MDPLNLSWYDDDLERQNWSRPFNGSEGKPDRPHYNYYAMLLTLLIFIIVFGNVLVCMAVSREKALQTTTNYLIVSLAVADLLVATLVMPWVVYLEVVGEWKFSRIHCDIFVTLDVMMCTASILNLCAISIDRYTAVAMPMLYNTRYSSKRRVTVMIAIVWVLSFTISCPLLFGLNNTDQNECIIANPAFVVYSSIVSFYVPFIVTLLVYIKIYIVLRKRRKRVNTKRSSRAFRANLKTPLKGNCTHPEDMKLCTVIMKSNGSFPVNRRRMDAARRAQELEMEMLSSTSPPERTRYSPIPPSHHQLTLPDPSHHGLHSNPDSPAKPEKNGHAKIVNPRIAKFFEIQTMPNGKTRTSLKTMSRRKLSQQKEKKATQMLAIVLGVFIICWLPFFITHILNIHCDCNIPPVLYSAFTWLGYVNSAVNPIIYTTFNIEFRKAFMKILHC
EC50 [1],SMILES,sedation: inhibition of open field activity [2],"lithium levels achieved in the rats ([3]; 6.75 mEq/kg i.p. then 2.4 g/kg of food for 7 days, ref [2003])","time to maximum brain levels [3, 4]","time to maximum serum level [3, 4]"
1.4 ± 0.1 nM,CN(C)C(=O)N[C@H]1CC[C@H](CCN2CCN(c3cccc(Cl)c3Cl)CC2)CC1 [Cariprazine],72%,,,
,[Li] [lithium],,1.01 ± 0.18 mmol/L,≤ 8 h,≤ 0.5 h

# Source: PMC4317219 (Pharmacology Research & Perspectives, 2014)
